Tests used:
[1] = Cell Titer-fluor cell activity assay in HCV-1b replicon cells (CC50); type: cell-based
Procedure: (§1) The EC50 and CC50 values of anti-HCV compounds were determined by HCV genotype 1a (HCV-1a) and 1B (HCV-1b) stable transfer replication (replicon) cells. The source of genotype 1a replicon is H77 clones containing K1691R, K2040R and S2204I adaptive mutations. The source of genotype 1b replicon is Con1 clones containing E1202G, T1280I and K1846T adaptive mutations.
(§2) HCV Replicon Cell Lines: HCV-1a and HCV-1b Cells
(§3) The compound powder was dissolved in 100% DMSO. Then the compound was diluted 5 times with 6 points, and added into the cell plate with Echo liquid handler. Ensure the final concentration of DMSO was 0.5%. Each compound was tested in double holes. Maximum initial concentration was 100, 10 or 1 nM, 5 times dilution, 6 points.
(§4) b) Cell Culture (HCV-1a or HCV-1b Replicon Cell):
(§5) 1) absorbing the culture supernatant of the cell culture and washing the cells with 10 mL PBS.
(§6) 2) adding preheated pancreatin to the washed cell culture flasks, rotating culture bottle to make the bottom of the culture bottle uniformly covered by pancreatin, then placed into 37° C., 5% CO2 incubator to digest.
(§7) 3) suspending cells in each T150 culture flask with 10-15 mL culture medium, absorbing 0.1 mL liquid and diluting 2 times by trypan blue solution as counted.
(§8) 4) diluting cells to 8×10^4/mL with the culture medium, adding the diluted cells into the compound-containing 96-well plate (Greiner, Cat.#655090) (100 μL/well, 8000 cells/well) with automatic liquid separator (Thermo Scientific). Then place into a 37° C., 5% CO2 incubator for 3 days. Cell control well: no compound, only containing 0.5% DMSO.
5) adding chemiluminescent substrate Cell Titer-fluor to the cell well, after incubation for 30 minutes, detecting the signal by chemiluminescence detection system Envison (Ex at 405 nm and read at 515 nm). The effect of the compounds on the activity of HCV replicon cells was analyzed according to the luminescence data, which was used to calculate the CC50 values.
(§9) The EC50 or CC50 values were obtained by nonlinear fitting analysis on inhibition percentage (inh %) data with GraphPad Prism software.

[2] = test system: HCV genotype 1b (HCV-1b) replicon cells; test: HCV genotype 1b replicon luciferase assay (EC50); type: cell-based, hepatitis C virus genotype 1b (Con1 clone); conditions: 3 days, luciferase (Bright-Glo)
Outline: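 Replicon cells, 8000/well, 3 d, 37 °C; 6-pt 5-fold dilution from 100, 10 or 1 nM, 0.5% DMSO, duplicates; Bright-Glo luminescence → EC50 (nonlinear fit). 1a = H77 K1691R/K2040R/S2204I; 1b = Con1 E1202G/T1280I/K1846T.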

[3] = test system: HCV genotype 1a (HCV-1a) replicon cells; test: HCV genotype 1a replicon luciferase assay (EC50); type: cell-based, hepatitis C virus genotype 1a (H77 clone); conditions: 3 days, luciferase (Bright-Glo)
Procedure: as §1
HCV 1a (HCV-1a) and 1b (HCV-1b) gene subtype replicon system contains the related HCV gene subtype non structural protein gene, G418 resistance gene NEO and luciferase gene, which results in that HCV related protein and luciferase can be stably expressed in cells. By detecting the level of expression of luciferase gene, the level of HCV replication can be determined. Therefore, the system is used as a model for screening the activity of anti-HCV compound in vitro.
as §2, §3, §4, §5, §6, §7, §8
6) then adding luciferase luminescence substrate Bright-Glo, after incubation for 5 minutes, detecting the luciferase activity by chemical luminescence detection system Envison (wavelength>700 nm); analyzing the anti-HCV inhibitory activity of the compounds according to luciferase data, which was used to calculate EC50 values.
as §9

SMILES	CC50 at 3 days [1] [nM]	EC50 [2] [nM]	EC50 [3] [nM]	EC50 ([3]; Hepatitis C virus, 72 h) [nM]	EC50 ([2]; Hepatitis C virus, 72 h) [nM]
COC(=O)N[C@H](C(=O)N1CCC[C@H]1c1ncc(-c2ccc(-c3ccc(-c4cnc([C@H]5C6CCC(C6)[C@@H]5C(=O)NC(c5cccnc5)C(C)C)[nH]4)cc3)cc2)[nH]1)C(C)C (single isomer, unassigned) [AA_233_A]	> 1	0.001 to 0.1	0.101 to 1	–	–
COC(=O)N[C@H](C(=O)N1CCC[C@H]1c1ncc(-c2ccc(-c3ccc(-c4cnc(C5C6CCC(C6)[C@@H]5C(=O)N[C@H](C)c5cccnc5)[nH]4)cc3)cc2)[nH]1)[C@@H](C)OC (single isomer, unassigned) [AA_253_A]	> 1	0.101 to 1	–	10 to 100	–
COC(=O)N[C@H](C(=O)N1CCC[C@H]1c1ncc(-c2ccc(-c3ccc(-c4cnc(C5C6CCC(C6)[C@@H]5C(=O)NC(C)c5cnccn5)[nH]4)cc3)cc2)[nH]1)[C@@H](C)OC (single isomer, unassigned) [AA_281_A]	> 1	0.001 to 0.1	0.101 to 1	–	–
COC(=O)NC(C(=O)N1CCCC1c1[nH]c(-c2ccc(-c3ccc(-c4cnc([C@@H]5CCCN5C(=O)[C@@H](NC(=O)OC)C(C)C)[nH]4)cc3)cc2)c2c1CCC2)C1CCOC1 (single isomer, unassigned) [AG_025_A]	> 10	0.001 to 0.1	–	10 to 100	–
COC(=O)N[C@H](C(=O)N1CCCC1c1ccc(-c2ccc(-c3ccc(-c4cnc([C@@H]5CCCN5C(=O)[C@@H](NC(=O)OC)[C@@H](C)OC)[nH]4)cc3)cc2)[nH]1)[C@@H](C)OC (single isomer, unassigned) [AG_072_A]	> 1	0.001 to 0.1	0.001 to 0.1	–	–
COC(=O)N[C@H](C(=O)N1CCC[C@H]1c1ncc(-c2ccc(-c3ccc(-c4cnc([C@H]5CCCC[C@@H]5C(=O)N(NC(=O)OC)C(C)C)[nH]4)cc3)cc2)[nH]1)C(C)C [AA_091_B]	> 10	–	–	10 to 100	0.101 to 1
COC(=O)NC(C(=O)N1CCC[C@H]1c1ncc(-c2ccc(-c3ccc(-c4cnc(C5CCCC[C@@H]5C(=O)N(NC(=O)OC)C(C)C)[nH]4)cc3)cc2)[nH]1)C1CCOCC1 (stereo partly drawn) [AA_109]	> 100	–	–	10 to 100	0.101 to 1
COC(=O)N[C@H](C(=O)N1CCC[C@H]1c1ncc(-c2ccc(-c3ccc(-c4cnc(C5CCCC[C@H]5C(=O)NCc5cccnc5)[nH]4)cc3)cc2)[nH]1)C(C)C (stereo partly drawn) [AA_113]	> 10	–	–	1 to 10	0.101 to 1
COC(=O)N[C@H](C(=O)N1CCC[C@H]1c1ncc(-c2ccc(-c3ccc(-c4cnc(C5CCCC[C@@H]5C(=O)N(NC(=O)OC)C(C)C)[nH]4)cc3F)cc2)[nH]1)C(C)C (stereo partly drawn) [AA_117]	> 10	–	–	10 to 100	0.101 to 1
COC(=O)N[C@H](C(=O)N1CCC[C@H]1c1ncc(-c2ccc(-c3ccc(-c4cnc(C5C6CCC(C6)[C@@H]5C(=O)N(NC(=O)OC)C(C)C)[nH]4)cc3)cc2)[nH]1)C(C)C (stereo partly drawn) [AA_121_A]	> 10	–	–	10 to 100	1 to 10
COC(=O)N[C@H](C(=O)N1CCC[C@H]1c1ncc(-c2ccc(-c3ccc(-c4cnc(C5C6CCC(C6)[C@H]5C(=O)N(NC(=O)OC)C(C)C)[nH]4)cc3)cc2)[nH]1)C(C)C (stereo partly drawn) [AA_121_B]	> 10	0.001 to 0.1	–	1 to 10	–
COC(=O)NC(C(=O)N1CCC[C@H]1c1ncc(-c2ccc(-c3ccc(-c4cnc(C5CCCC[C@@H]5C(=O)N(NC(=O)OC)C(C)C)[nH]4)cc3)cc2)[nH]1)C1CCOC1 (stereo partly drawn) [AA_122]	> 100	–	–	10 to 100	0.101 to 1
COC(=O)N[C@H](C(=O)N1CCC[C@H]1c1ncc(-c2ccc(-c3ccc(-c4cnc(C5CCCC[C@@H]5C(=O)N(NC(=O)OC)C(C)C)[nH]4)cc3C(F)(F)F)cc2)[nH]1)C(C)C (stereo partly drawn) [AA_127]	> 10	–	–	10 to 100	0.101 to 1
COC(=O)N[C@H](C(=O)N1CCC[C@H]1c1ncc(-c2ccc(-c3ccc(-c4cnc(C5CC(F)(F)C[C@H]5C(=O)N(NC(=O)OC)C(C)C)[nH]4)cc3)cc2)[nH]1)C(C)C (stereo partly drawn) [AA_138]	> 100	–	–	10 to 100	1 to 10
COC(=O)N[C@H](C(=O)N1CCC[C@H]1c1ncc(-c2ccc(-c3ccc(-c4cnc([C@H]5CCCC[C@@H]5C(=O)NCc5cccnc5)[nH]4)cc3)cc2)[nH]1)C(C)C [AA_150_A]	> 10	–	–	10 to 100	0.101 to 1
COC(=O)N[C@H](C(=O)N1CCC[C@H]1c1ncc(-c2ccc(-c3ccc(-c4cnc([C@@H]5CCCC[C@H]5C(=O)NCc5cccnc5)[nH]4)cc3)cc2)[nH]1)C(C)C [AA_150_B]	> 10	–	–	0.101 to 1	0.001 to 0.1
COC(=O)N[C@H](C(=O)N1CCC[C@H]1c1[nH]c(-c2ccc(-c3ccc(-c4cnc(C5C6CCC(C6)[C@@H]5C(=O)N(NC(=O)OC)C(C)C)[nH]4)cc3)cc2)c2c1CCC2)C(C)C (stereo partly drawn) [AA_155]	> 100	–	–	10 to 100	1 to 10
COC(=O)N[C@H](C(=O)N1CCC[C@H]1c1ncc(-c2ccc(-c3ccc(-c4cnc(C5C6CCC(C6)[C@@H]5C(=O)N(NC(=O)OC)C(C)C)[nH]4)cc3)cc2Cl)[nH]1)C(C)C (stereo partly drawn) [AA_156]	> 1	–	–	1 to 10	0.001 to 0.1
COC(=O)N[C@H](C(=O)N1CCC[C@H]1c1ncc(-c2ccc(-c3ccc(-c4cnc(C5C6CCC(C6)[C@@H]5C(=O)N(NC(=O)OC)C5CCOCC5)[nH]4)cc3)cc2)[nH]1)C(C)C (stereo partly drawn) [AA_158]	> 1	–	–	1 to 10	0.001 to 0.1
COC(=O)N[C@H](C(=O)N1CCC[C@H]1c1ncc(-c2ccc(-c3ccc(-c4cnc(C5CC6(C[C@@H]5C(=O)N(NC(=O)OC)C(C)C)OCCO6)[nH]4)cc3)cc2)[nH]1)C(C)C (stereo partly drawn) [AA_160]	> 50	–	–	1 to 10	0.001 to 0.1
COC(=O)N[C@H](C(=O)N1CCC[C@H]1c1ncc(-c2ccc(-c3ccc(-c4cnc(C5C6CCC(C6)[C@H]5C(=O)NCc5cccnc5)[nH]4)cc3)cc2)[nH]1)C(C)C (stereo partly drawn) [AA_162_A]	> 1	–	–	1 to 10	0.001 to 0.1
COC(=O)N[C@H](C(=O)N1CCC[C@H]1c1ncc(-c2ccc(-c3ccc(-c4cnc(C5C6CCC(C6)[C@@H]5C(=O)NCc5cccnc5)[nH]4)cc3)cc2)[nH]1)C(C)C (stereo partly drawn) [AA_162_B]	> 1	–	–	1 to 10	0.001 to 0.1
COC(=O)N[C@H](C(=O)N1CCC[C@H]1c1ncc(-c2ccc(-c3ccc(-c4cnc([C@@H]5[C@H]6CC[C@H](C6)[C@H]5C(=O)NCc5cccnc5)[nH]4)cc3)cc2)[nH]1)C(C)C [AA_162_ENDOA2]	> 1	–	–	0.101 to 1	0.001 to 0.1
COC(=O)N[C@H](C(=O)N1CCC[C@H]1c1cnc(-c2ccc(-c3ccc(-c4ncc(C5C6CCC(C6)[C@H]5C(=O)N(NC(=O)OC)C(C)C)[nH]4)cc3)cc2OC)[nH]1)C(C)C (stereo partly drawn) [AA_166_A]	> 5	–	–	10 to 100	0.001 to 0.1

From patent US10160771B2, “Hepatitis C virus inhibitors and uses thereof in preparation of drugs” (priority 2014, dated 2018)
